Reference: US12599584B2, “Indoline derivatives, compositions comprising them and uses thereof” (Yissum Research Development Company of The Hebrew …, priority 2016, dated 2026)
Counter-ions that a name gives are not always drawn.

How the values were obtained:
[1] = test system: TNF-α release from LPS-activated RAW cells; experiment: Release of TNF-α from LPS-activated RAW 264.7 macrophages (ELISA); format: cell-based, mouse; conditions: for Lowest concentration that inhibited TNF-α release by 25%: LPS-activated RAW cells; for Greater concentration needed to cause the same effect (TNF-α release): substituent in position 5, compared with AN1284
Description: (§1) Anti-inflammatory activity was measured in RAW 264.7 macrophage cells. The cells were seeded at density of 5×10^4 per well in 48-well culture plates and grown overnight in DMEM as described above. The compounds were added to give final concentrations ranging from 1×10^−12-1×10^−6 M of the respective salts per well. The cells were incubated for 2 h at 37° C. prior to stimulation with lipopolysaccharide (LPS, 2.5 μg/mL) from Escherichia coli (Sigma-Aldrich). Supernatants were harvested after 8 h for detection of TNF-α and after 24 h for nitric oxide (NO). NO production was detected by a colourimetric method using Griess reagent (0.2% naphthylenediamine dihydrochloride, and 2% sulfanilamide in 5% phosphoric acid), which measures the concentration of nitrite, a stable metabolite produced from NO. TNF-α protein was detected by means of the sandwich ELISA method using an ELISA kit (Biolegend, San Diego, CA, USA) according to the manufacturer's instructions.

[2] = test system: NO release from LPS-activated RAW cells; experiment: Release of NO from LPS-activated RAW 264.7 macrophages (Griess); format: cell-based, mouse; conditions: for Lowest concentration that inhibited NO release by 25%: LPS-activated RAW cells; for Greater concentration needed to cause the same effect (NO release): substituent in position 5, compared with AN1284
Description: as §1

LPS-injected mice = experiment: Pro-inflammatory cytokine proteins in tissues of mice injected with LPS; format: in vivo, mouse; conditions: sc, 2-3 doses, 15 min before LPS 10 mg/kg ip; 4 h after LPS
Description: Male Balb/c OlaHsd mice (aged 7-8 weeks) were injected subcutaneously (sc) with saline, or with AN1279, AN1283, AN1284, AN1287 and AN1298 at doses that contain approximately the equivalent amount of the base. LPS (10 mg/kg) was given by intraperitoneal injection 15 min later. The mice were sacrificed 4 h later, which was previously shown to be the optimal time for elevation of cytokines in the spleen and brain. The spleen, brain and liver were rapidly removed and frozen in liquid nitrogen and stored at −80° C. until use. A piece of the cortex was taken for gene analysis of cytokines. Blood was collected into heparinized tubes and plasma separated by centrifugation. For measurement of cytokine protein, tissues were weighed and diluted in PBS containing 0.8% NaCl, 0.144% NaHPO4, 0.024% KH2PO4 and protease inhibitor cocktail (Sigma) and homogenised in an Ultra-TURRAX® homogeniser at a speed of 24,000 rpm and centrifuged at 14000 g for 15 min at 4° C. Cytokines were detected by means of Elisa kits (Biolegend) and protein concentration was determined by a bicinchoninic acid protein assay kit (Thermo Scientific, IL, USA).

[3] = test system: TNF-α in human macrophages; experiment: TNF-α in human macrophages after elevation by LPS (ELISA); format: cell-based
Description: Blood (20 ml was collected from healthy human subjects on the day of the experiment in anti-coagulant tubes and diluted in PBS 1:1. Ficol (12 mL) was added into the bottom of the tube, centrifuged slowly for 30 min at 1400 g and peripheral blood mononuclear cells (PBMCs) were separated. Monocytes were isolated by addition of 15 ml of MACS buffer. After centrifugation at 1400 g for 10 min at 4° C., the supernatant fluid was removed, monocytes were isolated by means of a MACS-Monocyte isolation kit (cat: 130-091-153) and incubated at 4-8° C. for 10 min Monocytes (500,000/well) were seeded in 12 multi well plate and cultured for 7 days in RPMI+L-Glutamin+FBS (10%) and PenStrep and h-MCSF (20 ng/mL) to convert them into macrophages. […] TNF-α, IL-1β and IL-6 protein were detected by means of the sandwich ELISA method using an ELISA kit for human cytokines (Biolegend, San Diego, CA, USA) according to the manufacturer's instructions.

[4] = test system: C57B1/6 mice with STZ-induced diabetes; experiment: Diabetic nephropathy induced by streptozotocin (STZ); format: in vivo, mouse
Description: The renal proximal tubule is uniquely susceptible to a variety of metabolic and hemodynamic factors associated with diabetes, predominantly to hyperglycaemia. Glucose entry into renal proximal tubular cells is insulin-independent, making these cells particularly sensitive to the deleterious effects of chronic hyperglycaemia in subjects with diabetes. To induce diabetic nephropathy, male 20, 8-week-old C57B1/6 mice were given five consecutive intraperitoneal injections of streptozotocin (STZ) (50 mg/kg per day). A control group of 10 mice was given 0.1 mol/L citrate buffer (pH 4.5). Ten days following the last injection of STZ, half the mice were treated twice daily with sc injections of AN1284 2HCl (2 μmoles/kg), or vehicle (saline) for fifteen weeks.

RERT/TSC1^f/f mice = experiment: Tuberous sclerosis model: tamoxifen-induced TSC1 deletion; format: in vivo, mouse
Description: RERT/TSC1^f/f mice develop kidney pathology that resembles human tuberous sclerosis (TSC). Mice bearing a floxed allele of TSC1 were purchased from Jackson laboratories and crossed to homozygosity to the RERT strain, provided by Dr. Mariano Barbacid, Spanish National Cancer Research Centre. The RERT strain contains an IRES-Cre-ERT2 knock in into the large subunit of RNA polymerase II, allowing an inducible deletion in all cell types by administration of tamoxifen. […] The mice were injected sc with tamoxifen to induce TSC1 deletion and its effect assessed on body weight and immunological parameters associated with inflammation. AN1284 (1 μmole/kg of the 2HCl salt) was injected sc, twice daily in a group of 5 female mice 5 weeks after tamoxifen challenge. An untreated group of 5 tamoxifen challenged mice served as controls. The mice were weighed once weekly and observed for development of lethargy and eye closure.

[5] = test system: IL-6 in human macrophages; experiment: IL-6 in human macrophages after elevation by LPS (ELISA); format: cell-based; conditions: 24 h after LPS; 1 × 10^−9 M
Description: Blood (20 ml was collected from healthy human subjects on the day of the experiment in anti-coagulant tubes and diluted in PBS 1:1. Ficol (12 mL) was added into the bottom of the tube, centrifuged slowly for 30 min at 1400 g and peripheral blood mononuclear cells (PBMCs) were separated. Monocytes were isolated by addition of 15 ml of MACS buffer. After centrifugation at 1400 g for 10 min at 4° C., the supernatant fluid was removed, monocytes were isolated by means of a MACS-Monocyte isolation kit (cat: 130-091-153) and incubated at 4-8° C. for 10 min Monocytes (500,000/well) were seeded in 12 multi well plate and cultured for 7 days in RPMI+L-Glutamin+FBS (10%) and PenStrep and h-MCSF (20 ng/mL) to convert them into macrophages. Compounds (AN1284, AN1297, AN1298, 1×10^−10 or 1×10^−9 M) were added 2 h before LPS (100 μg/mL Sigma Ltd. phenol extracted from Escherichia coli 055: B5) and incubated at 37° C., 5% CO2. TNF-α, IL-1β and IL-6 protein were detected by means of the sandwich ELISA method using an ELISA kit for human cytokines (Biolegend, San Diego, CA, USA) according to the manufacturer's instructions.

[6] = test system: cerulein-induced mouse model; experiment: Acute pancreatitis, cerulein-induced mouse model; format: in vivo; conditions: for Serum amylase: 1 and 2 mg/kg sc 30 min after first cerulein injection, 4 hours; for TNF-α protein in the pancreas: 1 and 2 mg/kg sc, 4 hours after first cerulein injection
Description: The most commonly used animal model for acute pancreatitis is the cerulein-induced mouse model (Su et al., 2006). Cerulein is a cholecystokinin analogue that produces hyperstimulation of the pancreatic acinar cells at supramaximal dosage. The acute necrotizing pancreatitis produced is histopathologically similar to acute human pancreatitis (Van Acker et at, 2007). Groups of 10 Balb/C male mice weighing 24 gm were injected intraperitoneally once every hour for 4 hours with cerulean (50 μg/kg) suspended in saline. AN1297 (1 or 2 mg/kg) or resolvin D (1 mg/kg) or saline that were injected sc. 30 min after the first cerulean injection. Mice were killed by exsanguination at 4 hours after the first cerulein injection. Blood samples or measurement of amylase were obtained by direct intracardiac puncture. Pancreases were removed immediately, flash frozen in liquid nitrogen and stored −80° C. until assayed, for TNF-α protein by means of the sandwich ELISA method using an ELISA kit (Biolegend, San Diego, CA, USA) according to the manufacturer's instructions. Serum amylase activity was determined using a colorimetric assay kit (ab102523, Abcam). The values of serum amylase activity are expressed as units per litre (U/l).

[7] = whole kidney homogenates of diabetic mice
[8] = N-isopropylpropylamine versus propylamine side chain
[9] = 1 μmole/kg 2HCl salt sc twice daily
[10] = listed as AN1927, Hydrochloride

## COC(=O)CCC1CNc2ccccc21.Cl (centres unmarked) [AN647]
[1]
  Lowest concentration that inhibited TNF-α release by 25%: 100 pM
[2]
  Lowest concentration that inhibited NO release by 25%: 100 pM

## Cc1ccc(S(=O)(=O)O)cc1.NCCCC1CNc2ccccc21 (centres unmarked) [AN1282, 3-(Indolin-3-yl)propan-1-amine di-p-Toluenesulfonate]
[1]
  Lowest concentration that inhibited TNF-α release by 25%: 100 pM
[2]
  Lowest concentration that inhibited NO release by 25%: 100 pM

## COC(=O)CCN1CCc2ccccc21.Cl [AN1283, Methyl 3-(Indolin-1-yl)propanoate Hydrochloride]
LPS-injected mice
  IL-6 protein in the brain: reduction
  IL-6 protein in the liver: reduction

## CC(C)NCCCN1CCc2ccccc21.Cc1ccc(S(=O)(=O)O)cc1 [AN1284, 3-(Indolin-1-yl)-N-isopropylpropan-1-amine di-p-Toluenesulfonate]
[3]; 6 h after LPS, 1 × 10^−9 M
  Reduction (%) ± STD compared to LPS alone, TNF-α: 55.3 ± 9.8%
[3]; 12 h after LPS, 1 × 10^−10 M
  Reduction (%) ± STD compared to LPS alone, TNF-α: 41.1 ± 5.4%
[3]; 12 h after LPS, 1 × 10^−11 M
  Reduction (%) ± STD compared to LPS alone, TNF-α: 7.1 ± 5.8 %
[3]; 24 h after LPS, 1 × 10^−9 M
  Reduction (%) ± STD compared to LPS alone, TNF-α: 71.4 ± 9.7%
[4]; 2 μmoles/kg sc twice daily, fifteen weeks
  Degree of hyperglycaemia: did not affect
[4]; 0.5 mg/kg, sc
  Renal mRNA expression level of fibronectin 1: significantly normalised
[4]; AN1284 2HCl 2 μmoles/kg sc twice daily for fifteen weeks, diabetic mice
  Total fat mass: further reduction
[4]; chronic treatment
  Blood urea nitrogen levels: normalizing
  Glomerular cross-sectional area: normalizing
  Urine albumin-to-creatinine ratio: normalizing
[4]; versus diabetic-vehicle-treated animals
  Increased glomerular space area and mesangial expansion: completely normalised
[4]; versus diabetic-vehicle-treated group
  Kidney-to-body weight ratio: significantly reduced
[4]; [7]
  mRNA expression level of IP-10: significantly reduced
  mRNA expression level of TIMP1: significantly reduced
  mRNA expression level of collagen-1: significantly reduced
  mRNA expression level of collagen-3: significantly reduced
  mRNA expression level of kidney injury marker lipocalin 2: significantly reduced
[1]; [8]
  Decrease of the concentration that inhibited significantly the release of TNF-α: 10 fold
LPS-injected mice
  IL-6 protein in the brain: reduction
  IL-6 protein in the liver: reduction
[2]; [8]
  Decrease of the concentration that inhibited significantly the release of NO: 10 fold
RERT/TSC1^f/f mice; [9]
  MDSCs in the bone marrow and spleen (flow cytometry): significant reduction
  T cells in the bone marrow and spleen (flow cytometry): significant reduction
RERT/TSC1^f/f mice; 1 μmole/kg 2HCl salt sc twice daily, versus untreated tamoxifen-challenged mice
  Body weight decrease: much smaller decrease
RERT/TSC1^f/f mice; 1 μmole/kg of the 2HCl salt sc twice daily, from 5 weeks after tamoxifen, five weeks of treatment
  Development of severe lethargy: none of the AN1284-treated mice developed severe lethargy
RERT/TSC1^f/f mice; kidney histology
  Renal cysts: clear reduction
RERT/TSC1^f/f mice; versus untreated group
  Cytokine levels of TNF-α and IL-6 in spleen and liver: significant reduction
[5]
  Reduction (%) ± STD compared to LPS alone, IL-6: 64.7 ± 14.8%

## COC(=O)CCN1CCc2cc(Cl)ccc21.Cc1ccc(S(=O)(=O)O)cc1 [AN1285, Methyl 3-(5-Chloroindolin-1-yl)propanoate p-Toluenesulfonate]
[1]
  Greater concentration needed to cause the same effect (TNF-α release): 100 fold
[2]
  Greater concentration needed to cause the same effect (NO release): 100 fold

## COC(=O)CCN1CCc2cc(OC)ccc21.Cl [AN1297, Methyl 3-(5-Methoxyindolin-1-yl)propanoate Hydrochloride]
[3]; 6 h after LPS, 1 × 10^−9 M
  Reduction (%) ± STD compared to LPS alone, TNF-α: 55.7 ± 11.5%
[3]; 12 h after LPS, 1 × 10^−10 M
  Reduction (%) ± STD compared to LPS alone, TNF-α: 25.1 ± 10.9%
[3]; 12 h after LPS, 1 × 10^−11 M
  Reduction (%) ± STD compared to LPS alone, TNF-α: 22.0 ± 7.2%
[3]; 24 h after LPS, 1 × 10^−9 M
  Reduction (%) ± STD compared to LPS alone, TNF-α: 71.1 ± 8.9%
[6]; Hydrochloride
  Serum amylase: decreased significantly
  TNF-α protein in the pancreas: dose-dependently reduced
[6]; [10]
  Serum amylase: Dose related reduction
  TNF-α protein in the pancreas: Dose related reduction
LPS-injected mice
  IL-6 protein in the brain: reduction
  IL-6 protein in the liver: reduction
[5]
  Reduction (%) ± STD compared to LPS alone, IL-6: 62.4 ± 16.5%

## COc1ccc2c(c1)CCN2CCCNC(C)C [AN1298, N-Isopropyl-3-(5-methoxyindolin-1-yl)propan-1-amine di-Hydrochloride]
[3]; 6 h after LPS, 1 × 10^−9 M
  Reduction (%) ± STD compared to LPS alone, TNF-α: 50.4 ± 13.5%
[3]; 12 h after LPS, 1 × 10^−10 M
  Reduction (%) ± STD compared to LPS alone, TNF-α: 28.0 ± 7.9%
[3]; 12 h after LPS, 1 × 10^−11 M
  Reduction (%) ± STD compared to LPS alone, TNF-α: 14.6 ± 4.2%
[3]; 24 h after LPS, 1 × 10^−9 M
  Reduction (%) ± STD compared to LPS alone, TNF-α: 72.2 ± 9.7%
[1]
  Greater concentration needed to cause the same effect (TNF-α release): does not affect the activity
LPS-injected mice
  IL-6 protein in the brain: reduction
  IL-6 protein in the liver: reduction
[2]
  Greater concentration needed to cause the same effect (NO release): does not affect the activity
[5]
  Reduction (%) ± STD compared to LPS alone, IL-6: 54.6 ± 18.8%
